Assay in all cases: Bliss excess, mean over the matrix (fraction); higher = more synergy
Assay [1] deals with L-1236 (Hodgkin's Lymphoma). Summed up:
(§1)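 Cell lines in DMEM/F12 or RPMI with 10% FBS were plated in 1536-well plates, held 24 hours at 37°C, 5% CO2, then given two-drug dose matrices for 72 hours (DMSO typically 0.2%). Viability was read by CellTiter-Glo 2.0 luminescence and scaled as inhibition from 0 (vehicle wells) to 1 (blank wells). Combination Emax is the second-highest inhibition in the matrix; Bliss excess is observed combination effect minus expected EA + EB − EA·EB, EA and EB being single-agent effects.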

Assay [2] deals with SF268 (Low Grade Glioma). The gist of the method:
as §1

Assay [3] deals with OPM-2 (Plasma Cell Myeloma). The gist of the method: as §1
In assay [4] the test system is GB-1 (Glioblastoma). The gist of the method:
as §1

For assay [5], the system named is WM278 (Melanoma). The gist of the method: as §1
Assay [6] has as its system FADU (Head and Neck Carcinoma). The gist of the method: as §1
Assay [7] concerns MFE-280 (Endometrial Carcinoma). Summed up: as §1
Assay [8] deals with OVMIU (Ovarian Carcinoma). The gist of the method:
as §1

The subject of assay [9] is TE-8 (Esophageal Squamous Cell Carcinoma). The gist of the method:
as §1

Assay [10] concerns PSN1 (Pancreatic Carcinoma). Summed up:
as §1

For assay [11], the system named is LK-2 (Squamous Cell Lung Carcinoma). The gist of the method: as §1
In assay [12] the test system is SHP-77 (Small Cell Lung Carcinoma). Summed up: as §1
Assay [13] has as its system VAL (B-Cell Non-Hodgkin's Lymphoma). The gist of the method:
as §1

Assay [14] concerns LN-229 (Glioblastoma). The gist of the method: as §1
The test system of assay [15] is LB996-RCC (Kidney Carcinoma). Summed up: as §1
Assay [16] concerns COLO-680N (Esophageal Squamous Cell Carcinoma). Summed up: as §1
For assay [17], the system named is SK-PN-DW (Other Solid Carcinomas). Summed up:
as §1

In assay [18] the test system is RERF-GC-1B (Gastric Carcinoma). The gist of the method: as §1
Assay [19] concerns NCI-H446 (Small Cell Lung Carcinoma). The gist of the method: as §1

Among the data in the supplement of paper PMC11061612 are Bliss excess values, retold here.

For `COc1cccc(OCCCN)c1-c1cc(Nc2cnc(C#N)cn2)n[nH]1` [Prexasertib] + C=CCn1c(=O)c2cnc(Nc3ccc(N4CCN(C)CC4)cc3)nc2n1-c1cccc(C(C)(C)O)n1 [AZD1775] (first compound max 1 µM, partner max 1 µM), the Bliss excess in assay [1] is -0.0943; in assay [2] it was 0.0619; in assay [3] it was 0.0569; in assay [4] it was 0.0483; in assay [5], 0.0753; in [6], 0.084. Besides, the Bliss excess worked out at 0.176 in assay [7]; 0.0574 in [8]; 0.0893 in [9]; 0.178 in assay [10]; 0.0739 in assay [11]; 0.0413 in assay [12]. Moreover, the Bliss excess in assay [13] was 0.0026; in [14] it was -0.0177; in [15], 0.0427; in assay [16], -0.0054; in assay [17], 0.0025; in [18] it was 0.049. Besides, in assay [19], the Bliss excess amounted to 0.0829.
As to `COc1cccc(OCCCN)c1-c1cc(Nc2cnc(C#N)cn2)n[nH]1` [Prexasertib] + CN(C)CCCOc1ccc(-c2ccc3ncc4c(c3c2)n(C2CCOCC2)c(=O)n4C)cn1 [AZD0156] (first compound max 1 µM, 7x7, partner max 1 µM), the Bliss excess in assay [1] was -0.0649; in assay [2], 0.0592; in assay [3], 0.0204; in assay [4] it was -0.0079; in [5], 0.0128; in assay [6], -0.0256. For the same compound, the Bliss excess in [7] was -0.0219; in [8], -0.0012; in assay [9] it was -0.0033; in assay [10] it was -0.0038; in [11] it was -0.0181; in [12], 0.0107. Moreover, the Bliss excess in assay [13] was -0.0162; in [14], -0.035; in assay [15], 0.0028; in [16], -0.0393; in assay [17], -0.0141; in [18] it was 0.0049. The Bliss excess in [19] is -0.0009.
As for `COc1cccc(OCCCN)c1-c1cc(Nc2cnc(C#N)cn2)n[nH]1` [Prexasertib] + C[C@@H]1COCCN1C2=NC(=NC(=C2)C3(CC3)[S@](=N)(=O)C)C4=C5C=CNC5=NC=C4 [AZD6738] (first compound max 1 µM, 7x7, partner max 10 µM), the Bliss excess was -0.0199 in [1]; -0.0421 in assay [2]; -0.0663 in assay [3]; -0.0337 in assay [4]; -0.0364 in assay [5]; -0.0333 in [6]. The Bliss excess was -0.024 in assay [7]; 0.0388 in assay [8]; -0.0122 in assay [9]; 0.0334 in assay [10]; -0.0182 in [11]; 0.0645 in assay [12]. The Bliss excess in [13] is -0.0637; in [14], -0.0577; in assay [15], 0.0355; in assay [16] it was 0.0342; in assay [17], -0.0438; in assay [18], -0.119. For the same compound, the Bliss excess in assay [19] was found to be 0.0078.
Turning to `COc1cccc(OCCCN)c1-c1cc(Nc2cnc(C#N)cn2)n[nH]1` [Prexasertib] + Cc1cc2ncnn2cc1Nc1ncc2c(n1)n(C1CCOCC1)c(=O)n2C [AZD7648] (first compound max 1 µM, 7x7, partner max 10 µM), the Bliss excess in assay [1] was -0.046; in [2], 0.0078; in [3], -0.0341; in assay [4], 0.0387; in assay [5] it was -0.009; in assay [6] it was -0.0383. Besides, the Bliss excess in assay [7] was 0.0032; in assay [8], -0.0211; in [9], -0.0448; in [10], 0.0106; in [11] it was -0.037; in assay [12], -0.0143. Also, the Bliss excess is -0.0204 in assay [13]; -0.0596 in assay [14]; 0.0292 in assay [15]; -0.0491 in assay [16]; -0.0503 in assay [17]; 0.0015 in assay [18]. Further, in assay [19], the Bliss excess is -0.008.
Take `COc1cccc(OCCCN)c1-c1cc(Nc2cnc(C#N)cn2)n[nH]1` [Prexasertib] + O=C(c1cc(Cc2n[nH]c(=O)c3ccccc23)ccc1F)N1CCN(C(=O)C2CC2)CC1 [Olaparib] (first compound max 1 µM, 7x7, partner max 10 µM): the Bliss excess is -0.0391 in assay [1]; 0.0208 in assay [2]; -0.0628 in assay [3]; -0.0002 in [4]; -0.0732 in [5]; 0.0354 in assay [6]. For the same compound, the Bliss excess is -0.0223 in assay [7]; -0.0938 in assay [8]; -0.075 in assay [9]; -0.0146 in [10]; -0.0249 in assay [11]; -0.0791 in assay [12]. The Bliss excess in assay [13] was -0.0518; in assay [14] it was -0.181; in [15], -0.0145; in assay [16] it was -0.0652; in [17] it was -0.0689; in [18], -0.0275. Besides, the Bliss excess in [19] worked out at 0.003.
`COc1cc2c(cc1OCCCCCOc1cc3c(cc1OC)C(=O)N1C=C(C)C[C@H]1C=N3)N=C[C@@H]1CC(C)=CN1C2=O` [SG3199] + O=C(c1cc(Cc2n[nH]c(=O)c3ccccc23)ccc1F)N1CCN(C(=O)C2CC2)CC1 [Olaparib] (first compound max 0.001 µM, 7x7, partner max 10 µM): the Bliss excess in assay [1] was -0.0387; in assay [2] it was -0.0297; in [3] it was -0.047; in assay [4], -0.0328; in assay [5], -0.0299; in assay [6], -0.0009. The Bliss excess is -0.0092 in [7]; -0.0898 in [8]; -0.049 in assay [9]; -0.0371 in assay [10]; -0.0137 in assay [11]; -0.0137 in [12]. The Bliss excess is -0.0069 in assay [13]; -0.0454 in assay [14]; 0.0077 in assay [15]; -0.043 in [16]; -0.0295 in [17]; 0.0263 in assay [18]. In assay [19], the Bliss excess is -0.0372.
For the compound `CCc1c2c(nc3ccc(O)cc13)-c1cc3c(c(=O)n1C2)COC(=O)[C@]3(O)CC` [SN-38] + CN(C)CCCOc1ccc(-c2ccc3ncc4c(c3c2)n(C2CCOCC2)c(=O)n4C)cn1 [AZD0156] (first compound max 0.3 µM, 7x7, partner max 1 µM), the Bliss excess is -0.079 in assay [1]; 0.0609 in assay [2]; 0.0104 in [3]; -0.0374 in assay [4]; 0.042 in [5]; -0.0007 in assay [6]. The Bliss excess in [7] was -0.0605; in [8], -0.0047; in assay [9], 0.148; in [10], -0.0198; in [11], 0.0959; in assay [12], 0.0296. In addition, the Bliss excess was 0 in [13]; -0.0305 in [14]; 0.0011 in assay [15]; 0.0306 in assay [16]; 0.0355 in assay [17]; 0.0092 in [18]. The Bliss excess in [19] amounted to 0.121.
